Laboratory results taken from publication PMC4904371, “Luteolin inhibits GABAA receptors in HEK cells and brain slices” (Scientific Reports, 2016).

Legend:
[1] = biological target: T1, α1β2 GABAAR (Rattus norvegicus, UniProt P62813+P63138); test: whole-cell patch clamp, inhibition of GABA-evoked current; type: cell-based
T1 construct: gene Gabra1; full-length subunits in pcDNA3.1, co-transfected in HEK293T cells; GFP as separate marker; pentamer

[2] = biological target: T2, α5β2 GABAAR (Rattus norvegicus, UniProt P19969+P63138); test: as above; type: cell-based
T2 construct: gene Gabra5; full-length subunits in pcDNA3.1, co-transfected in HEK293T cells; GFP as separate marker; pentamer
T2 sequence (P19969 26-464): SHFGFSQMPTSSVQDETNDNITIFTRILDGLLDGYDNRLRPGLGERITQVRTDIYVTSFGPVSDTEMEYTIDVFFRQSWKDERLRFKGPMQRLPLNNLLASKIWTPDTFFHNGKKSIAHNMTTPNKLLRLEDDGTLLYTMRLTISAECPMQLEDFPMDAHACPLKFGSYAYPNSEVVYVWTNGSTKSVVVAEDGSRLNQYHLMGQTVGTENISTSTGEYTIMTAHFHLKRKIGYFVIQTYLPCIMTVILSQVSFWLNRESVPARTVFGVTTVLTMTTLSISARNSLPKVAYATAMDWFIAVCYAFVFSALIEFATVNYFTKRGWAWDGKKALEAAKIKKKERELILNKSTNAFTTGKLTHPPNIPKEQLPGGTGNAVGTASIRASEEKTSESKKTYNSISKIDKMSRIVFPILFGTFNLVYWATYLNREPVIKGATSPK
T2 sequence (P63138 26-474): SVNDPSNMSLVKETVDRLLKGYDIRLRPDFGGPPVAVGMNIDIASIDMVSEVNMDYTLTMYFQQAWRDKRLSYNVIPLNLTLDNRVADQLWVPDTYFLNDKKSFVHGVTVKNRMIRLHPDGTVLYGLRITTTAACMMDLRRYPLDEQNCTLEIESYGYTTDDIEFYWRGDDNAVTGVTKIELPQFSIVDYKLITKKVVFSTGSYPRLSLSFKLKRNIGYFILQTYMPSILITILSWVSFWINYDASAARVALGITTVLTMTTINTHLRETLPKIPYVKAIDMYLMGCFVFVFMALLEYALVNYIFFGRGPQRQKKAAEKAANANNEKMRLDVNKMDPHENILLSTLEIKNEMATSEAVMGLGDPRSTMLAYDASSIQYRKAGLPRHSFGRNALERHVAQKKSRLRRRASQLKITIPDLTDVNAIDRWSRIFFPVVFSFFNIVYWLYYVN

T1 sequence (P62813 28-455): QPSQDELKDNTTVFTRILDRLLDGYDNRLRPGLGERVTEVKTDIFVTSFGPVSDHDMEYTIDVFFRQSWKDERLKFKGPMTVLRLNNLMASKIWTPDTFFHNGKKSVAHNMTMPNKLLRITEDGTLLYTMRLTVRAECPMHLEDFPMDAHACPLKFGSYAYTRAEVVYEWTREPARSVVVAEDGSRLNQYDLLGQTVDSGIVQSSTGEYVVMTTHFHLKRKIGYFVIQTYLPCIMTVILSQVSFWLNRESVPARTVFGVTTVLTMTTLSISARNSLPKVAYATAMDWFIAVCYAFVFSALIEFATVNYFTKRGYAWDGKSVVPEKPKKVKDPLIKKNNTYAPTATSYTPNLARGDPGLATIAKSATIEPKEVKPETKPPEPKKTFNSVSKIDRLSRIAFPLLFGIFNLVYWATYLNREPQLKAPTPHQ
T1 sequence (P63138 26-474): as the sequence (P63138 26-474) above

O=c1cc(-c2ccc(O)c(O)c2)oc2cc(O)cc(O)c12 [luteolin, 2-(3,4-Dihydroxyphenyl)-5,7-dihydroxy-4-chromenone]
IC50 [1]: 10.8 ± 4.46 µM | IC50 [2]: 25.4 ± 9 µM
